Source: patent US10898451B2 (Board of Regents of the University of Texas System, priority 2018, dated 2021)

Tests used:
[1] = test system: anti-NMDAR encephalitis; assay: Case study: tramadol pre-treatment with therapeutic plasma exchange (PLEX) in a patient with anti-NMDAR encephalitis; format: in vivo, human
Description: Described herein is a previously healthy person with newly diagnosed seizures and schizophrenia. […] At that time, they were started on solumedrol 1 g each day for five days along with the last two days of the steroid course being completed. […] Their anti-epileptic medications were escalated to include levetiracetam, phenobarbital, and lacosimide.
The assay used a semi-quantitative indirect immunofluorescence on human embryonic kidney cell cultures expressing recombinant NMDA receptors (transfected HEK 293 cells). […] NMDA receptor antibodies were not sent from their serum. […] Six days after their colectomy, PLEX was restarted for another five sessions.

[2] = Grond and Sablotzki 2004; cited from earlier work
[3] = oral formulation; Grond and Sablotzki 2004; cited from earlier work
[4] = PLEX in combination with tramadol 100 mg enterally three times a day

CNC1(c2ccccc2Cl)CCCCC1=O (stereo not shown) [ketamine]
facial dyskinesias during the first three PLEX sessions (without tramadol) ([1]; ketamine at 20 mcg/kg/min, patient obtunded and not following commands): minimal improvement

C[C@H]1C[C@@H]2[C@H]([C@@H](O)C[C@@]3(C)[C@H]2CC[C@]3(O)C(=O)COC(=O)CCC(=O)O)[C@@]2(C)C=CC(=O)C=C12 [solumedrol]
improvement of symptoms after steroid course ([1]; solumedrol 1 g each day for five days): failed to improve any of their symptoms

COc1cccc(C2(O)CCCCC2CN(C)C)c1 (stereo not shown) [tramadol, 2-(dimethylaminomethyl)-1-(3-methoxyphenyl)cyclohexanol]
patients with serious side effects (hypotension, circulatory collapse, pruritis, sleep disorders, somnolence, abdominal pain, tachycardia) [2]: less than 1% | facial dyskinesias by the end of the fifth PLEX session [1, 4]: completely resolved | following commands by the end of the third PLEX session [1, 4]: began to follow commands | level of consciousness by the end of the fifth PLEX session [1, 4]: alert and awake enough to interact with their care providers | overall safety and efficacy in anti-NMDAR encephalitis ([1]; conclusion of the case study): safe and an effective treatment | recurrence of symptoms at follow up ([1]; nine months after symptoms onset): has not had any recurrent symptoms | facial dyskinesias after the first PLEX session ([1]; patient, tramadol 100 mg enterally three times a day, one hour before each of five PLEX sessions): resolved | eye opening immediately following the first PLEX session ([1]; tramadol 100 mg enterally three times a day, one hour before each PLEX session): opened their eyes spontaneously | absorption [3]: completely absorbed | brain concentration versus plasma [3]: higher brain concentration than in plasma | peak onset [3]: approximately 60 min
